Test results taken from US20180028436A1, “TOPICAL FORMULATION OF HOPS EXTRACT” (priority 2016, published 2018).

Test system: fibroblast cells of L929 cell line
Assay: MTT cytotoxicity assay on fibroblast cells
Type: cell-based
Text: In this example, biocompatibility and toxicity of the topical formulation were studied. At first, cytotoxicity of the hops extract, hops nanoparticles (which were produced according to EXAMPLE 1), and β-cyclodextrin as the carrier were investigated as follows. The cultured fibroblast cells of L929 cell line were exposed to the hops extract, hops nanoparticles, and β-cyclodextrin in three test groups with different concentrations. Three test groups and the control group were studied in a 3-(4,5-dimethylthiazol-2-yl)-2,5-diphenyltetra-zolium bromide (MTT) assay using dimethyl thiazolyl diphenyl tetrazolium salt for evaluating the cell toxicity. FIG. 6A illustrates a MTT plot of the fibroblast cells after about 24 hours of exposing to the hops nanoparticles. Higher absorbance of the MTT dye indicates higher cellular proliferation.

## OC[C@H]1O[C@@H]2O[C@H]3[C@H](O)[C@@H](O)[C@@H](O[C@H]4[C@H](O)[C@@H](O)[C@@H](O[C@H]5[C@H](O)[C@@H](O)[C@@H](O[C@H]6[C@H](O)[C@@H](O)[C@@H](O[C@H]7[C@H](O)[C@@H](O)[C@@H](O[C@H]8[C@H](O)[C@@H](O)[C@@H](O[C@H]1[C@H](O)[C@H]2O)O[C@@H]8CO)O[C@@H]7CO)O[C@@H]6CO)O[C@@H]5CO)O[C@@H]4CO)O[C@@H]3CO [β-cyclodextrin]
L929 fibroblast cells, MTT, 24 hours
  IC50 Value 24 hours: >6000 µg/mL
L929 fibroblast cells, MTT, 72 hours
  IC50 Value 72 hours: >6000 µg/mL
Conclusion from IC50 values of TABLE 3
  cytotoxicity effect: no cytotoxicity effect
